Assays:
Type in all cases: in vivo
[1] = system: windgrass (Apera spica-venti); test: Test D pre-/postemergence: windgrass
Source text: (§1) Seeds of plant species selected from bluegrass (annual bluegrass, Poa annua), blackgrass (Alopecurus myosuroides), canarygrass (Phalaris minor), chickweed (common chickweed, Stellaria media), galium (catchweed bedstraw, Galium aparine), bromegrass, downy (downy bromegrass, Bromus tectorum), field poppy (Papaver rhoeas), field violet (Viola arvensis), foxtail, green (green foxtail, Setaria viridis), deadnettle (henbit deadnettle, Lamium amplexicaule), ryegrass, Italian (Italian ryegrass, Lolium multiflorum), kochia (Kochia scoparia), lambsquarters (Chenopodium album), oilseed rape (Brassica napus), pigweed (Amaranthus retroflexus), Russian thistle (Salsola iberica), chamomile (scentless chamomile, Matricaria inodora), speedwell (bird's-eye speedwell, Veronica persica), barley, spring (spring barley, Hordeum vulgare), wheat, spring (spring wheat, Triticum aestivum), buckwheat, wild (wild buckwheat, Polygonum convolvulus), mustard, wild (wild mustard, Sinapis arvensis), oat, wild (wild oat, Avena fatua), radish, wild (wild radish, Raphanus raphanistrum), windgrass (Apera spica-venti), barley, winter (winter barley, Hordeum vulgare), and wheat, winter (winter wheat, Triticum aestivum) were planted into a silt loam soil and treated preemergence with test chemicals formulated in a non-phytotoxic solvent mixture which included a surfactant. At the same time, these same crop and weed species were planted in pots containing the planting medium comprising spaghnum peat moss, vermiculite, wetting agent and starter nutrients and treated with postemergence applications of the test chemicals formulated in the same manner. Plants ranged in height from 2 to 18 cm (1- to 4-leaf stage).
(§2) Treated plants and controls were maintained in a controlled growth environment for 14 to 21 days after which time all species were compared to controls and visually evaluated. Plant response ratings, summarized in Table D, are based on a scale of 0 to 100 where 0 is no effect and 100 is complete control. A dash (-) response means no test result.

[2] = system: windgrass (Apera spica-venti); test: Test C postemergence: windgrass
Source text: (§3) At the same time, plants selected from these crop and weed species and also barley (winter barley, Hordeum vulgare), canarygrass (Phalaris minor), chickweed (common chickweed, Stellaria media) windgrass (Apera spica-venti) and deadnettle (henbit deadnettle, Lamium amplexicaule) were planted in pots containing Redi-Earth® planting medium (Scotts Company, 14111 Scottslawn Road, Marysville, Ohio 43041) comprising spaghnum peat moss, vermiculite, wetting agent and starter nutrients and treated with postemergence applications of test chemicals formulated in the same manner. Plants ranged in height from 2 to 18 cm (1- to 4-leaf stage) for postemergence treatments.
(§4) Treated plants and controls were maintained in a greenhouse for 13 to 15 days, after which time all species were compared to controls and visually evaluated. Plant response ratings, summarized in Table C, are based on a scale of 0 to 100 where 0 is no effect and 100 is complete control. A dash (-) response means no test result.

[3] = system: sedge, umbrella (small-flower umbrella sedge, Cyperus difformis); test: Test C flooded paddy test: sedge, umbrella; settings: Cyperus difformis, scale 0 to 100 (0 no effect, 100 complete control), read-out: Plant response rating, Sedge, Umbrella
Method in brief: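 Plants at 2-leaf stage in pots flooded 3 cm above soil; compounds applied directly into the paddy water, depth maintained. Visual rating against controls after 13–15 days in greenhouse, scale 0 (no effect) to 100 (complete control).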

[4] = system: canarygrass (Phalaris minor); test: Test D pre-/postemergence: canarygrass
Source text: as §1, §2

[5] = system: chickweed (common chickweed, Stellaria media); test: Test D pre-/postemergence: chickweed; settings: Postemergence
Source text: as §1, §2

[6] = system: buckwheat, wild (wild buckwheat, Polygonum convolvulus); test: Test D pre-/postemergence: buckwheat, wild
Method in brief: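 Species were sown in silt loam and sprayed preemergence, or grown in peat/vermiculite medium and sprayed postemergence at the 1- to 4-leaf stage (2–18 cm), with compounds in a surfactant-containing solvent. Injury was visually rated against untreated controls after 14–21 days, on a 0 (no effect) to 100 (complete control) scale.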

[7] = system: oat, wild (wild oat, Avena fatua); test: Test D pre-/postemergence: oat, wild
Source text: as §1, §2

[8] = system: canarygrass (Phalaris minor); test: Test C postemergence: canarygrass
Source text: as §3, §4

[9] = Postemergence, 31 g ai/ha, scale 0 to 100 (0 no effect, 100 complete control)
[10] = Postemergence, 62 g ai/ha, scale 0 to 100 (0 no effect, 100 complete control)
[11] = Postemergence, 125 g ai/ha, scale 0 to 100, 0 no effect, 100 complete control
[12] = Postemergence, 250 g ai/ha, scale 0 to 100 (0 no effect, 100 complete control)
[13] = Postemergence, 16 g ai/ha, scale 0 to 100
[14] = Preemergence, 16 g ai/ha, scale 0 to 100 (0 no effect, 100 complete control)
[15] = Preemergence, 31 g ai/ha, scale 0 to 100 (0 no effect, 100 complete control)
[16] = Preemergence, 62 g ai/ha, scale 0 to 100
[17] = Preemergence, 125 g ai/ha, scale 0 to 100
[18] = Preemergence, 250 g ai/ha, scale 0 to 100
[19] = 31 g ai/ha, scale 0 to 100 (0 no effect, 100 complete control)
[20] = 62 g ai/ha, scale 0 to 100 (0 no effect, 100 complete control)
[21] = 125 g ai/ha, scale 0 to 100, 0 no effect, 100 complete control

Cc1nn(-c2ccc(F)cc2)nc1Cc1ccnc(C(F)(F)F)c1 [Compound 16, 4-[[2-(4-fluorophenyl)-5-methyl-2H-1,2,3-triazol-4-yl]methyl]-2-(trifluoromethyl)pyridine]
Plant response rating: Windgrass [1, 9]: 10
Plant response rating: Windgrass [1, 10]: 20
Plant response rating: Windgrass [1, 11]: 25
Plant response rating: Windgrass [1, 12]: 35
Plant response rating, Windgrass [1, 13]: 0
Plant response rating, Windgrass [1, 14]: 20
Plant response rating, Windgrass [1, 15]: 20
Plant response rating, Windgrass [1, 16]: 90
Plant response rating, Windgrass [1, 17]: 100
Plant response rating, Windgrass [1, 18]: 100
Plant response rating, Windgrass [2, 19]: 45
Plant response rating, Windgrass [2, 20]: 50
Plant response rating, Windgrass [2, 21]: 50
Plant response rating, Windgrass ([2]; 250 g ai/ha, scale 0 to 100): 50
pest or weed control at 62 g/ha ([3]; Flood (flooded paddy test), 62 g ai/ha, visual rating after 13 to 15 days): 90%
pest or weed control at 125 g/ha ([3]; Flood (flooded paddy test), 125 g ai/ha, visual rating after 13 to 15 days): 95%
pest or weed control at 250 g/ha ([3]; Flood (flooded paddy test), 250 g ai/ha, visual rating after 13 to 15 days): 95%
pest or weed control at 31 g/ha ([3]; Flood, 31 g ai/ha): 80%
Plant response rating: Canarygrass [4, 9]: 30
Plant response rating: Canarygrass [4, 10]: 35
Plant response rating: Canarygrass [4, 11]: 40
Plant response rating: Canarygrass [4, 12]: 80
Plant response rating, Canarygrass [4, 13]: 20
Plant response rating, Canarygrass [4, 14]: 20
Plant response rating, Canarygrass [4, 15]: 40
Plant response rating, Canarygrass [4, 16]: 50
Plant response rating, Canarygrass [4, 17]: 90
Plant response rating, Canarygrass [4, 18]: 100
Plant response rating: Chickweed [5, 19]: 70
Plant response rating: Chickweed [5, 20]: 90
Plant response rating: Chickweed [5, 21]: 95
Plant response rating: Chickweed ([5]; 250 g ai/ha, scale 0 to 100 (0 no effect, 100 complete control)): 95
Plant response rating, Chickweed ([5]; 16 g ai/ha, scale 0 to 100): 40
Plant response rating: Buckwheat, Wild [6, 9]: 0
Plant response rating: Buckwheat, Wild [6, 10]: 10
Plant response rating: Buckwheat, Wild [6, 11]: 20
Plant response rating: Buckwheat, Wild [6, 12]: 50
Plant response rating, Buckwheat, Wild [6, 13]: 0
Plant response rating, Buckwheat, Wild [6, 14]: 0
Plant response rating, Buckwheat, Wild [6, 15]: 0
Plant response rating, Buckwheat, Wild [6, 16]: 0
Plant response rating, Buckwheat, Wild [6, 17]: 0
Plant response rating, Buckwheat, Wild [6, 18]: 20
Plant response rating: Oat, Wild [7, 9]: 10
Plant response rating: Oat, Wild [7, 10]: 30
Plant response rating: Oat, Wild [7, 11]: 45
Plant response rating: Oat, Wild [7, 12]: 50
Plant response rating, Oat, Wild [7, 13]: 0
Plant response rating, Oat, Wild [7, 14]: 0
Plant response rating, Oat, Wild [7, 15]: 10
Plant response rating, Oat, Wild [7, 16]: 10
Plant response rating, Oat, Wild [7, 17]: 100
Plant response rating, Oat, Wild [7, 18]: 100
Plant response rating, Canarygrass [8, 19]: 20
Plant response rating, Canarygrass [8, 20]: 60
Plant response rating, Canarygrass [8, 21]: 60
Plant response rating, Canarygrass ([8]; 250 g ai/ha, scale 0 to 100): 90
